Tests used:
[1] = Spraying coated dispersion with water solutions (cospraying); assay type: physicochemical; conditions: water solution of the compound sprayed on knife coated dispersion of Example 9B
Excerpt: For an ionic dispersion, a solution containing polyion of the opposite charge can be applied to the film to create an instantaneous tack-free film. For example, an anionic dispersion can be coated and before it has formed a film, a solution containing polyvalent cation is sprayed on the coating's surface to yield a tack free film. This method is commonly referred to as “cospraying.” A preferred solution contains water and metal cations, such as calcium and magnesium. Preferably, the film becomes tack free almost instantaneously after spraying the water solution (i.e., within a minute, preferably within a few seconds). In applications where very rapid tack-free times are required, such as in preoperative preparation for surgery, it may be beneficial to mist or otherwise wet the surface of the film. By “tack-free,” it is generally meant that the misted film contains little or no adhesion to other substrates at ambient conditions, typically from about 20° to 30° C.
The dispersions of Example 9B we knife coated onto a polypropylene coated paper release liner and sprayed with water solutions containing the following materials. The film appearance was recorded in the Result column.

[2] = Stability of dispersions on storage / standing; assay type: physicochemical; conditions: Example 6 dispersions
Experimental: The particle size of certain dispersions was measured on a Coulter LS 100 laser Particle Size Analyzer equipped with a microvolume module. Usually, the particle size was measured one day after dispersions were made. The particle size was measured again about 30 days after the dispersions were made. During this period, the dispersions were sealed and stored at room temperature. Samples were diluted in the same solvent mixture as the original dispersion to make the measurement. The results are shown in Table 2 below, which indicate that the dispersions have mean particle sizes generally under about 5 to 6 micrometers (μm). All dispersions appear to be stable after about 30 days.
After adding the prepolymer, each example was adjusted to a pH of about 7.0. To Example 2B was added a 40% solids, water based polyurethane pressure sensitive adhesive (PSA) (WD4006 from H.B. Fuller, St. Paul, Minn.). The PSA was added to increase adhesion to skin. The PSA was added to the alcohol-water solvent system prior to prepolymer addition. The EDA was added and the reaction mixture stirred at high speed for 20 minutes. Stable dispersions were obtained in call cases.
The dispersions with and without iodine anti-microbial agents were applied to human skin in small patches and allowed to dry. Adhesion was very good for all samples.

O=C([O-])CC(O)(CC(=O)[O-])C(=O)[O-].O=C([O-])CC(O)(CC(=O)[O-])C(=O)[O-].[Ca+2].[Ca+2].[Ca+2] [Calcium Citrate]
Result (film appearance) [1]: No effect

povidone-iodine
stability of anti-microbial agent in the dispersions upon standing [2]: split out of the dispersions as a separate phase upon standing

[Ca+2].[Cl-].[Cl-] [Calcium chloride]
Result (film appearance) [1]: Almost instantaneous tack-free film.

[Cl-].[Na+] [Sodium Chloride]
Result (film appearance) [1]: Random coagulation.
